Where two headings read alike, the source gives them in different places.
Tests used:
[1] = test system: Brassica napus (spring rape, BRSNN); assay: Greenhouse postemergence trial BRSNN; type: in vivo
[2] = test system: Viola tricolor (wild pansy, VIOTR); assay: Greenhouse postemergence trial VIOTR; details: Viola tricolor, post-emergence, read-out: % visual injury Obs;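 further: greenhouse plants sprayed at second to third true leaf stage, injury rated visually after 20-22 d against solvent-blank sprayed controls, 0 meaning no injury and 100 complete kill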
Description: (§1) Seeds of the desired test plant species were planted in a 90:10% v/v (volume/volume) mixture of PRO-MIX® BX (Premier Tech Horticulture, Quakertown, PA, USA) and PROFILE® GREENS GRADE™ (Profile Products LLC, Buffalo Grove, IL, USA) planting mixture, which typically has a pH of 5.2 to 6.2 and an organic matter content of at least 50 percent, in plastic pots with a surface area of 103.2 square centimeters (cm^2). […] The plants were grown for 7-36 days (d) in a greenhouse with an approximate 14-hour (h) photo-period which was maintained at about 23° C. during the day and 22° C. during the night. Nutrients and water were added on a regular basis and supplemental lighting was provided with overhead metal halide 1000-Watt lamps as necessary. The plants were employed for testing when they reached the second or third true leaf stage.
(§2) Emulsifiable concentrates of each of each pyridine carboxylate herbicide (Compound A or Compound B) were prepared at 100 grams acid equivalent per liter (g ae/L). The emulsifiable concentrates also included a safener, cloquintocet-mexyl, at 120 grams active ingredient per liter (g ai/L), unless otherwise noted below. An aliquot of each emulsifiable concentrate was placed in a 25 mL glass vial and diluted with an aqueous mixture of 1.25% (v/v) ACTIROB® B esterified rapeseed oil (Bayer Crop Science, Research Triangle Park, NC, USA) or MSO® Concentrate with LECI-TECH® methylated soybean oil (Loveland Products, Loveland, CO, USA) to obtain concentrated stock solutions at the highest application rate for each herbicide, based upon a 12 milliliter (mL) application volume at a rate of 187 liters per hectare (L/ha). The concentrated stock solutions were further diluted with an aqueous mixture of 1.25% v/v ACTIROB® B or MSO® Concentrate with LECI-TECH® to obtain stock solutions at reduced application rates for each herbicide. Spray solutions of the herbicide combinations (Compound A or Compound B plus synthetic auxin herbicide or auxin transport inhibitor) were prepared by adding weighed amounts or aliquots of the synthetic auxin herbicide or auxin transport inhibitor to the stock solutions of Compound A or Compound B to form 12-mL spray solutions in two-way combinations.
(§3) The spray solutions were applied to the plant material with an overhead Mandel track sprayer equipped with 8002E nozzles calibrated to deliver 187 L/ha over an application area of 0.503 square meters (m^2) at a spray height of 18 inches (43 centimeters (cm)) above the average plant canopy. Control plants were sprayed in the same manner with the solvent blank. All pyridine carboxylate herbicide (component a) application rates are given as “g ae/ha” and all synthetic auxin herbicide or auxin transport inhibitor (component b) application rates are given as “g ai/ha.”
(§4) The treated plants and control plants were placed in a greenhouse as described above and watered by sub-irrigation to prevent wash-off of the test compounds. After 20-22 d, the condition of the test plants as compared with that of the control plants was determined visually and scored on a scale of 0 to 100 percent where 0 corresponds to no injury and 100 corresponds to complete kill.

[3] = test system: Papaver rhoeas (corn poppy, PAPRH); assay: Greenhouse postemergence trial PAPRH; type: in vivo; details: Papaver rhoeas, post-emergence, read-out: % visual injury Obs
Description: as §1, §2, §3, §4

[4] = test system: Veronica hederifolia (ivyleaf speedwell, VERHE); assay: Greenhouse postemergence trial VERHE; type: in vivo
[5] = test system: Papaver rhoeas (corn poppy), herbicide-resistant (PAPRH-R); assay: Greenhouse postemergence trial PAPRH-R; type: in vivo
[6] = test system: Viola arvensis (field violet, VIOAR); assay: Greenhouse postemergence trial VIOAR; type: in vivo; details: Viola arvensis, post-emergence, read-out: % visual injury Obs
[7] = test system: Hordeum vulgare (spring barley, HORVS); type: in vivo; details: HORVS
[8] = test system: Salsola kali (Russian thistle, SASKR); assay: Greenhouse postemergence trial SASKR; type: in vivo; details: SASKR;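 further: greenhouse plants sprayed at second or third true leaf stage, injury rated by eye after 20-22 d against solvent-blank controls, 0 meaning no injury, 100 complete kill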
[9] = test system: Matricaria inodora (false chamomile, MATIN); assay: Greenhouse postemergence trial MATIN; type: in vivo; details: Tripleurospermum inodorum, post-emergence, read-out: % visual injury Obs
[10] = test system: Polygonum convolvulus (wild buckwheat, POLCO); assay: Greenhouse postemergence trial POLCO; type: in vivo
[11] = test system: Matricaria chamomilla (wild chamomile, MATCH); assay: Greenhouse postemergence trial MATCH; type: in vivo;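 further: greenhouse plants sprayed at second to third true leaf stage, injury rated by eye 20-22 d later versus solvent-blank controls on 0–100 scale, 0 no injury, 100 complete kill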
Description: (§5) The plants were grown for 7-36 days (d) in a greenhouse with an approximate 14-hour (h) photo-period which was maintained at about 23° C. during the day and 22° C. during the night. Nutrients and water were added on a regular basis and supplemental lighting was provided with overhead metal halide 1000-Watt lamps as necessary. The plants were employed for testing when they reached the second or third true leaf stage.
(§6) The emulsifiable concentrates also included a safener, cloquintocet-mexyl, at 120 grams active ingredient per liter (g ai/L), unless otherwise noted below.
(§7) Control plants were sprayed in the same manner with the solvent blank. All pyridine carboxylate herbicide (component a) application rates are given as “g ae/ha” and all synthetic auxin herbicide or auxin transport inhibitor (component b) application rates are given as “g ai/ha.”
as §4

[12] = test system: Triticum aestivum (spring wheat, TRZAS); type: in vivo; details: TRZAS
[13] = test system: Triticum aestivum (winter wheat, TRZAW); assay: Greenhouse postemergence crop phytotoxicity TRZAW; type: in vivo; details: TRZAW
[14] = test system: Cyanus segetum (cornflower, CENCY); assay: Greenhouse postemergence trial CENCY; type: in vivo; details: Centaurea cyanus, post-emergence, read-out: % visual injury Obs
Description: as §1, §2, §3, §4

[15] = test system: Veronica persica (bird's-eye speedwell, VERPE); assay: Greenhouse postemergence trial VERPE; type: in vivo
Description: as §1, §2, §3, §4

[16] = test system: Sinapis arvensis (wild mustard, SINAR); assay: Greenhouse postemergence trial SINAR; type: in vivo; details: Mutarda arvensis, post-emergence, SINAR, read-out: % visual injury Obs
[17] = test system: Rumex obtusifolius (broad-leaf dock, RUMOB); assay: Greenhouse postemergence trial RUMOB; type: in vivo; details: c2-3 Compound A 7.5/10; c4 Florpyrauxifen-benzyl 10; c5-6 A 7.5/10 + Florpyrauxifen-benzyl 10 g/ha
Description: as §1, §2, §3, §4

[18] = test system: Kochia scoparia (kochia, KCHSC); assay: Greenhouse postemergence trial KCHSC; type: in vivo; details: KCHSC
[19] = test system: Lamium purpureum (purple deadnettle, LAMPU); assay: Greenhouse postemergence trial LAMPU; details: Lamium purpureum, post-emergence, read-out: % visual injury Obs
[20] = test system: Anthemis arvensis (field chamomile, ANTAR); assay: Greenhouse postemergence trial ANTAR; type: in vivo; details: Anthemis arvensis, post-emergence, read-out: % visual injury Obs
Description: as §1, §2, §3, §4

[21] = test system: Cirsium arvense (Canadian thistle, CIRAR); assay: Greenhouse postemergence trial CIRAR; type: in vivo; details: Cirsium arvense, post-emergence, CIRAR, read-out: % visual injury Obs
Description: as §1, §2, §3, §4

[22] = test system: Stellaria media (chickweed, STEME); assay: Greenhouse postemergence trial STEME; type: in vivo; details: Stellaria media, post-emergence, read-out: % visual injury Obs
[23] = test system: Hordeum vulgare (winter barley, HORVW); assay: Greenhouse postemergence crop phytotoxicity HORVW; type: in vivo; details: HORVW
[24] = test system: Capsella bursa-pastoris (shepherd's purse, CAPBP); assay: Greenhouse postemergence trial CAPBP; type: in vivo; details: Capsella bursa-pastoris, post-emergence, read-out: % visual injury Obs
Description: as §1, §2, §3, §4

[25] = test system: Matricaria discoidea (pineapple weed, MATMT); assay: Greenhouse postemergence trial MATMT; type: in vivo
[26] = test system: Brassica napus (winter rape, BRSNW); assay: Greenhouse postemergence trial BRSNW; type: in vivo
[27] = test system: Chenopodium album L. (common lambsquarters, CHEAL); assay: Greenhouse postemergence trial CHEAL; type: in vivo; details: CHEAL; alone 280 g/ha;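 further: greenhouse plants sprayed at second to third true leaf stage, injury rated by eye after 20-22 d versus solvent-blank sprayed controls, 0 = no injury, 100 = complete kill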
[28] = test system: Amaranthus retroflexus (pigweed, AMARE); assay: Greenhouse postemergence trial AMARE; type: in vivo; details: AMARE; alone 280 g/ha;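 further: Greenhouse-grown plants sprayed at second to third true leaf stage, injury rated by eye after 20-22 d versus solvent-blank sprayed controls, 0 = no injury, 100 = complete kill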
Description: as §5, §6, §7, §4

SMILES: COc1c(Cl)ccc(-c2nc(C(=O)OCc3ccccc3)c(Cl)c(N)c2F)c1F [Florpyrauxifen-benzyl, florpyrauxifen-benzyl, reference compound]
- % visual injury, Obs ([1]; c2-3 Compound A 7.5/10, c4 Florpyrauxifen-benzyl 10, c5-6 A 7.5/10 + Florpyrauxifen-benzyl 10 g/ha): 25%
- pest or weed control at 20 g/ha [2]: 70%
- pest or weed control at 20 g/ha [3]: 70%
- pest or weed control at 20 g/ha ([4]; Veronica hederifolia, post-emergence, read-out: % visual injury Obs): 20%
- pest or weed control at 20 g/ha ([5]; Papaver rhoeas, post-emergence, read-out: % visual injury Obs): 60%
- pest or weed control at 20 g/ha [6]: 10%
- % visual injury Obs ([7]; Florpyrauxifen-benzyl 20 g/ha): 0%
- pest or weed control at 20 g/ha ([8]; Salsola kali, post-emergence, Florpyrauxifen-benzyl 20 g/ha, read-out: % visual injury Obs): 70%
- pest or weed control at 20 g/ha [9]: 50%
- pest or weed control at 20 g/ha ([10]; Fallopia convolvulus, post-emergence, read-out: % visual injury Obs): 85%
- pest or weed control at 20 g/ha ([11]; Matricaria chamomilla, post-emergence, MATCH, Florpyrauxifen-benzyl 20 g/ha, read-out: % visual injury Obs): 35%
- % visual injury Obs ([12]; Florpyrauxifen-benzyl 20 g/ha): 0%
- % visual injury Obs ([13]; Florpyrauxifen-benzyl 20 g/ha): 0%
- pest or weed control at 20 g/ha [14]: 100%
- pest or weed control at 20 g/ha ([15]; Veronica persica, post-emergence, read-out: % visual injury Obs): 10%
- pest or weed control at 20 g/ha ([16]; Florpyrauxifen-benzyl 20 g/ha): 90%
- % visual injury, Obs [17]: 33%
- pest or weed control at 20 g/ha ([18]; Bassia scoparia, post-emergence, Florpyrauxifen-benzyl 20 g/ha, read-out: % visual injury Obs): 65%
- pest or weed control at 20 g/ha [19]: 97%
- pest or weed control at 20 g/ha [20]: 100%
- pest or weed control at 20 g/ha ([21]; Florpyrauxifen-benzyl 20 g/ha): 70%
- pest or weed control at 20 g/ha [22]: 100%
- % visual injury Obs ([23]; Florpyrauxifen-benzyl 20 g/ha): 0%
- pest or weed control at 20 g/ha [24]: 80%
- pest or weed control at 20 g/ha ([25]; Matricaria discoidea, post-emergence, read-out: % visual injury Obs): 50%
- plant injury at 20 g/ha ([26]; Brassica napus, post-emergence, read-out: % visual injury Obs): 40%

SMILES: O=C(O)COc1nc(Cl)c(Cl)cc1Cl [Triclopyr]
- % visual injury (Obs) ([1]; BRSNN, alone 280 g/ha): 50%
- pest or weed control at 560 g/ha [2]: 70%
- pest or weed control at 560 g/ha ([3]; PAPRH, alone, 560 g/ha): 20%
- VERHE % visual injury Obs ([4]; Triclopyr 45 g/ha (Table 39)): 10%
- VERHE % visual injury Obs ([4]; Triclopyr 60 g/ha (Table 39)): 15%
- pest or weed control at 560 g/ha ([4]; Veronica hederifolia, post-emergence, VERHE, alone, 560 g/ha, read-out: % visual injury Obs): 65%
- pest or weed control at 560 g/ha ([5]; Papaver rhoeas, post-emergence, PAPRH-R, alone, 560 g/ha, read-out: % visual injury Obs): 50%
- PAPRH-R % visual injury Obs ([5]; Triclopyr 45 g/ha (Table 39)): 10%
- PAPRH-R % visual injury Obs ([5]; Triclopyr 60 g/ha (Table 39)): 10%
- pest or weed control at 560 g/ha ([6]; VIOAR, alone, 560 g/ha): 25%
- % visual injury (Obs) ([7]; alone 280 g/ha): 0%
- % visual injury Obs ([7]; alone, 560 g/ha): 0%
- % visual injury (Obs) ([8]; alone 280 g/ha): 45%
- pest or weed control at 560 g/ha ([8]; Salsola kali, post-emergence, alone, 560 g/ha, read-out: % visual injury Obs): 50%
- pest or weed control at 560 g/ha ([9]; MATIN, alone, 560 g/ha): 0%
- pest or weed control at 560 g/ha ([10]; Fallopia convolvulus, post-emergence, POLCO, alone, 560 g/ha, read-out: % visual injury Obs): 30%
- % visual injury (Obs) ([10]; POLCO, alone 280 g/ha): 13%
- % visual injury (Obs) ([11]; MATCH, alone 280 g/ha): 5%
- pest or weed control at 560 g/ha ([11]; Matricaria chamomilla, post-emergence, MATCH, alone, 560 g/ha, read-out: % visual injury Obs): 40%
- MATCH % visual injury Obs ([11]; Triclopyr 45 g/ha (Table 39)): 10%
- MATCH % visual injury Obs ([11]; Triclopyr 60 g/ha (Table 39)): 10%
- % visual injury (Obs) ([12]; alone 280 g/ha): 0%
- % visual injury Obs ([12]; alone, 560 g/ha): 0%
- % visual injury Obs ([13]; alone, 560 g/ha): 0%
- % visual injury (Obs) [27]: 53%
- pest or weed control at 560 g/ha ([14]; CENCY, alone, 560 g/ha): 100%
- VERVE % visual injury Obs ([15]; Triclopyr 45 g/ha (Table 39)): 0%
- VERVE % visual injury Obs ([15]; Triclopyr 60 g/ha (Table 39)): 0%
- pest or weed control at 560 g/ha ([15]; Veronica persica, post-emergence, VERPE, alone, 560 g/ha, read-out: % visual injury Obs): 60%
- pest or weed control at 560 g/ha ([16]; alone, 560 g/ha): 100%
- pest or weed control at 560 g/ha ([18]; Bassia scoparia, post-emergence, alone, 560 g/ha, read-out: % visual injury Obs): 75%
- % visual injury (Obs) ([18]; alone 280 g/ha): 23%
- pest or weed control at 560 g/ha [19]: 65%
- % visual injury (Obs) [28]: 45%
- pest or weed control at 560 g/ha ([20]; ANTAR, alone, 560 g/ha): 40%
- pest or weed control at 560 g/ha ([21]; alone, 560 g/ha): 75%
- pest or weed control at 560 g/ha ([22]; STEME, alone, 560 g/ha): 30%
- % visual injury Obs ([23]; alone, 560 g/ha): 0%
- pest or weed control at 560 g/ha ([24]; CAPBP, alone, 560 g/ha): 75%
- pest or weed control at 560 g/ha ([25]; Matricaria discoidea, post-emergence, MATMT, alone, 560 g/ha, read-out: % visual injury Obs): 10%
- MATMT % visual injury Obs ([25]; Triclopyr 45 g/ha (Table 39)): 20%
- MATMT % visual injury Obs ([25]; Triclopyr 60 g/ha (Table 39)): 25%
- plant injury at 560 g/ha ([26]; Brassica napus, post-emergence, BRSNW, alone, 560 g/ha, read-out: % visual injury Obs): 60%
- BRSNW % visual injury Obs ([26]; Triclopyr 45 g/ha (Table 39)): 10%
- BRSNW % visual injury Obs ([26]; Triclopyr 60 g/ha (Table 39)): 10%

Source: patent publication US12568967B2, “Compositions comprising pyridine carboxylate herbicides with synthetic auxin herbicides or auxin transport inhibitors” (priority 2018, dated 2026)
